The text below walks through data of ChEMBL document CHEMBL1201862, “PubChem BioAssay data set” (2004).

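A five-concentration, 48-hour dose response in 96-well plates underlies each endpoint, interpolated linearly between surrounding concentrations. Abbreviation: GI50, concentration required for 50% inhibition of growth.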 Calls of active or inactive are those of the source. No stated cut-off is given here; in the data, active = GI50 up to about 1.1 µM and inactive = higher. Where only a bound is given, the exact number is not on record here.

Test systems include MDA-MB-435; UO-31; MOLT-4; NCI-H226; OVCAR-8; Hs-578T; HOP-92; K562; UACC-257; SK-MEL-28; OVCAR-5; HOP-62; U-251; SNB-19; SF-539; A498; MDA-N; KM-20L2; HL-60; PC-3.
What all share (test): NCI anticancer screen, dose series, 48 h

Consider `CC(=O)c1cccc(NC2C(N)C(NC(=O)N(C)C)(C(C)O)C(C)(O)C2(O)COC(=O)c2c(C)cccc2O)c1` (centres undefined), for which the GI50 is < 0.001 µM (active) in the assay with MDA-MB-435; 0.00191 µM (active) with UO-31; < 0.001 µM (active) with MOLT-4; < 0.001 µM (active) in the assay with NCI-H226; < 0.001 µM (active) in the assay with OVCAR-8; < 0.001 µM (active) in the assay on Hs-578T. In addition, the GI50 in the assay with HOP-92 was < 0.001 µM (active); in the assay on K562 it was < 0.001 µM (active); with UACC-257, 0.00113 µM (active); in the assay on SK-MEL-28 it was < 0.001 µM (active); in the assay on OVCAR-5, < 0.001 µM (active); with HOP-62, < 0.001 µM (active). The GI50 with U-251 is < 0.001 µM (active); in the assay with SNB-19, < 0.001 µM (active); in the assay on SF-539, < 0.001 µM (active); with A498, < 0.001 µM (active); in the assay with MDA-N, < 0.001 µM (active); in the assay with KM-20L2 it was 0.01 µM (active). For the same compound, the GI50 in the assay with HL-60 is < 0.001 µM (active).
As to `CN(C)CCS/C(=N\c1ccccc1)N1C=COC=C1`, the GI50 is 18.9 µM (inactive) in the assay with MDA-MB-435; 57.3 µM (inactive) with UO-31; > 84.7 µM (inactive) in the assay on MOLT-4; > 46.2 µM (inactive) with NCI-H226; 37.5 µM (inactive) with OVCAR-8; 34.4 µM (inactive) in the assay on PC-3. Also, the GI50 in the assay on Hs-578T is 89.1 µM (inactive); in the assay on HOP-92, 26.2 µM (inactive); with K562, > 67.8 µM (inactive); in the assay on UACC-257 it was 18.2 µM (inactive); with SK-MEL-28 it was 19.5 µM (inactive); in the assay on OVCAR-5 it was > 66.5 µM (inactive). In addition, the GI50 in the assay on HOP-62 was > 100 µM (inactive); with U-251, 48 µM (inactive); with SNB-19, > 100 µM (inactive); in the assay with SF-539, 29.2 µM (inactive); in the assay with A498 it was > 100 µM (inactive); in the assay on MDA-N, 24 µM (inactive). The results for the GI50 in the assay with KM-20L2 and in the assay on HL-60 were 47.1 µM (inactive) and > 77.6 µM (inactive), respectively.
